One assay has as its target T1, EGFR (L858R T790M C797S) (Homo sapiens, UniProt P00533, C797S/L858R/T790M).
T1 construct: purchased SignalChem E10-122VG
Description: Biochemical EGFR inhibition assay (Caliper mobility shift), EGFR LRTMCS. To be noted: LRTMCS (PH) IC50 (nM) @ 1 mM ATP (Num), EGFR LRTMCS mutant. In short, it runs like this:
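Kinase reactions proceed at 25° C. to 10%–20% conversion of total peptide, are terminated with 35 mM EDTA, and the phosphopeptide is resolved from substrate by electrophoretic mobility shift. Apparent IC50 values come from plotting percent activity against log compound concentration.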

The target in assay [1] is T2, intracellular phosphorylation of EGFR in NCI-H1975 cell line that harbors the EGFR L858R T790M mutations (Homo sapiens, UniProt P00533, L858R/T790M).
T2 construct: NCI-H1975 cell line that harbors the EGFR L858R T790M mutations (ATCC, CRL-5908); host or cells: NCI-H1975
Kind of assay: NCI-H1975 pEGFR AlphaLISA assay. The class given is cell-based. To be noted: NCI-H1975 cells (EGFR L858R T790M), p-EGFR (Tyr1068), 4-5 hours incubation; read-out: Ext pEGFR H1975 GMean IC50 (nM) Protocol: @Pharmaron AlphaLISA (Num). As for the experimental part: On the next day, the test compounds and DMSO control were added into H1975 cell plate followed by incubation at 37C/5% CO2 for 4-5 hours. […] Then 5 μL of a donor bead mix was added to each well followed by overnight incubation at room temperature in dark. On the next day, the plate was read at a compatible plate reader to obtain pEGFR signal. Percent of pEGFR inhibition was plotted against log concentration of compounds to generate IC50 values.
For orientation: Bead proximity is the source of the signal in Alpha formats.

Where only a bound is given, the exact number is not on record here.

T1 sequence (P00533 25-1210 T790M/C797S/L858R): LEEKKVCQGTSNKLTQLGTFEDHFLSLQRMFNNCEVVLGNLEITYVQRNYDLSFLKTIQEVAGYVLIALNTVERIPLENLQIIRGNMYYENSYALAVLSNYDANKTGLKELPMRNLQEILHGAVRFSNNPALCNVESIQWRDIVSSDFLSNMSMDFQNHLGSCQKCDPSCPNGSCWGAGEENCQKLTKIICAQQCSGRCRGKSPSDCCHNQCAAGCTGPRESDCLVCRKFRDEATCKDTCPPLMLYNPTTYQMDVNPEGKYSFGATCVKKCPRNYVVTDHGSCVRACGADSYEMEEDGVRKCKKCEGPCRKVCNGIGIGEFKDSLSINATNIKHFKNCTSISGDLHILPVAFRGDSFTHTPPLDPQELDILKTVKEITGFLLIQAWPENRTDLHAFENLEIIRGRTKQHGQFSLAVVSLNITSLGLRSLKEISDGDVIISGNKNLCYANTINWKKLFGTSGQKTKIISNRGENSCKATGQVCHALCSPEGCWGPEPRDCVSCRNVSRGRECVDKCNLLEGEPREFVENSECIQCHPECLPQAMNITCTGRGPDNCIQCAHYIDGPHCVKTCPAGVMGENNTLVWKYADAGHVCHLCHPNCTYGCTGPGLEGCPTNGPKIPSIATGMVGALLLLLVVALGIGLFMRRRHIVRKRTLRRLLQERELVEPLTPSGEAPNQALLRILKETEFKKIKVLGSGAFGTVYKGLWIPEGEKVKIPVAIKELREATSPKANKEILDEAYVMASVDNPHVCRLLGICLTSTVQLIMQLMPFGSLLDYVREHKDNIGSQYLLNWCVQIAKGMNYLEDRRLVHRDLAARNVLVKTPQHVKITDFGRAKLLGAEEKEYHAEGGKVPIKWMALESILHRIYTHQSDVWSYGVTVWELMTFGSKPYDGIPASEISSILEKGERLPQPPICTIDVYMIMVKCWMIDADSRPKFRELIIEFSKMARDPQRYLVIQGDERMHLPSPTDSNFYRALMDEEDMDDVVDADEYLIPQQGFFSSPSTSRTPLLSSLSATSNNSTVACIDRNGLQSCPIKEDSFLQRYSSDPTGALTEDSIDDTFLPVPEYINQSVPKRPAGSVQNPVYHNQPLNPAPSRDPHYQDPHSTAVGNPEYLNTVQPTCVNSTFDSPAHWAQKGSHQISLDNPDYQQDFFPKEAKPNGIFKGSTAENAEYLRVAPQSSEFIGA
T2 sequence (P00533 25-1210 T790M/L858R): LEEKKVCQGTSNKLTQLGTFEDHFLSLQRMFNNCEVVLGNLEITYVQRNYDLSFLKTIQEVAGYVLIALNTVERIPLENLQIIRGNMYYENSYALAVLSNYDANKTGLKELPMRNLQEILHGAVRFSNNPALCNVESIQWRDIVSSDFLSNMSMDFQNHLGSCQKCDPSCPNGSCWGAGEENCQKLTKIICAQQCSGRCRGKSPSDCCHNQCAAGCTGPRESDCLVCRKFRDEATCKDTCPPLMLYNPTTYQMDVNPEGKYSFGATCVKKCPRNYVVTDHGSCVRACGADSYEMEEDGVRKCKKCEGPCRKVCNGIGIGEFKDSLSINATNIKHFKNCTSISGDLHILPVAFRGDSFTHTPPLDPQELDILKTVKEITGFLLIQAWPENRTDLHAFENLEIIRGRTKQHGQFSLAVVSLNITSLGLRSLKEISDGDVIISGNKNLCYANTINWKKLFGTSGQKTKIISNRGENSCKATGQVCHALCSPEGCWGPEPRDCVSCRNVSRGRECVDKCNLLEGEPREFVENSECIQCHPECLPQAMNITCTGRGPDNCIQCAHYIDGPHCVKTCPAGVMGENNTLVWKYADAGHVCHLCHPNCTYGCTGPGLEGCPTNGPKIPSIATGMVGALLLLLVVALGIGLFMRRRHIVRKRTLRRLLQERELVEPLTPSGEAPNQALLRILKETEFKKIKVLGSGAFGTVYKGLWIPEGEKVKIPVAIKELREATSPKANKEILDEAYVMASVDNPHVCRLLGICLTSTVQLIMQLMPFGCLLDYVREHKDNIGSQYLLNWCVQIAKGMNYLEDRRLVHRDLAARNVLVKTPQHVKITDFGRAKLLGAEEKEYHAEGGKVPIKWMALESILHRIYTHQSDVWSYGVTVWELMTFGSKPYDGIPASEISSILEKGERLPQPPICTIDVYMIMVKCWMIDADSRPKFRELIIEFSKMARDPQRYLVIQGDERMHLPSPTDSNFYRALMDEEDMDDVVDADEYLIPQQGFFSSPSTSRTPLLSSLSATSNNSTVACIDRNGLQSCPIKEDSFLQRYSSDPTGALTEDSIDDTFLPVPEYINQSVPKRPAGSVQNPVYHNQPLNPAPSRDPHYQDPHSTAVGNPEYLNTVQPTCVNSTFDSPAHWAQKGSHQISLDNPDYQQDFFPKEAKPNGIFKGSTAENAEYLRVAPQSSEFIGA

As usually defined, the IC50 is the point on the concentration scale where inhibition reaches its midpoint. Take `CC(C)c1cnc(N2C[C@H](O)[C@H]2C)c2cnc(Nc3ccnc(N4CCC(C)(O)CC4)n3)cc12` [Example 128, 1-(4-((8-((2R,3S)-3-hydroxy-2-methylazetidin-1-yl)-5-isopropyl-2,7-naphthyridin-3-yl)amino)pyrimidin-2-yl)-4-methylpiperidin-4-ol]: the IC50 was < 15 nM at EGFR (L858R T790M C797S) and > 50 nM in assay [1].
The like results for `CC(C)c1ccc(N2C[C@H](n3ccnn3)[C@H]2C)c2cnc(Nc3ccnc(N4CCC(C)(O)CC4)n3)cc12` [Example 129, 1-(4-((5-isopropyl-8-((2R,3S)-2-methyl-3-(1H-1,2,3-triazol-1-yl)azetidin-1-yl)isoquinolin-3-yl)amino)pyrimidin-2-yl)-4-methylpiperidin-4-ol] were, in that order, 30 to 100 nM and 20 to 30 nM.
As to `CC(C)c1cnc(N2C[C@H](n3ccnn3)[C@H]2C)c2cnc(Nc3ccnc(N4CCC(C)(O)CC4)n3)cc12` [Example 130, 1-(4-((5-isopropyl-8-((2R,3S)-2-methyl-3-(1H-1,2,3-triazol-1-yl)azetidin-1-yl)-2,7-naphthyridin-3-yl)amino)pyrimidin-2-yl)-4-methylpiperidin-4-ol], the IC50 was in the range of 15 to 20 nM on EGFR (L858R T790M C797S) and 20 to 30 nM in assay [1].
`CC(C)c1cnc(N2CC[C@H]2C)c2cnc(Nc3ccnc(N4CCC(O)(CO)CC4)n3)cc12` [Example 131, (R)-4-(hydroxymethyl)-1-(4-((5-isopropyl-8-(2-methylazetidin-1-yl)-2,7-naphthyridin-3-yl)amino)pyrimidin-2-yl)piperidin-4-ol]: the IC50 on EGFR (L858R T790M C797S) was 15 to 20 nM; in assay [1], > 50 nM.
On the same counts, the results for `[2H]C([2H])([2H])O[C@H]1CCN(c2nccc(Nc3cc4c(C(C)C)cnc(N5C[C@H](OCCO)[C@H]5C)c4cn3)n2)C[C@H]1F` [Example 137, 2-(((2R,3S)-1-(6-((2-((3R,4S)-3-fluoro-4-(methoxy-d3)piperidin-1-yl)pyrimidin-4-yl)amino)-4-isopropyl-2,7-naphthyridin-1-yl)-2-methylazetidin-3-yl)oxy)ethan-1-ol] are < 15 nM and < 10 nM.
On the same counts, the results for `[2H]C([2H])([2H])O[C@H]1CCN(c2nccc(Nc3cc4c(C(C)C)cnc(N5C[C@H](O)[C@H]5C)c4cn3)n2)C[C@H]1F` [Example 138, (2R,3S)-1-(6-((2-((3R,4S)-3-fluoro-4-(methoxy-d3)piperidin-1-yl)pyrimidin-4-yl)amino)-4-isopropyl-2,7-naphthyridin-1-yl)-2-methylazetidin-3-ol] are < 15 nM and 10 to 20 nM.
On the same counts, the results for `[2H]C([2H])([2H])O[C@@H]1CCN(c2nccc(Nc3cc4c(C(C)C)cnc(N5C[C@H](O)[C@H]5C)c4cn3)n2)C[C@@H]1F` [Example 139, (2R,3S)-1-(6-((2-((3S,4R)-3-fluoro-4-(methoxy-d3)piperidin-1-yl)pyrimidin-4-yl)amino)-4-isopropyl-2,7-naphthyridin-1-yl)-2-methylazetidin-3-ol] are < 15 nM and < 10 nM.
`[2H]C([2H])([2H])O[C@@H]1CCN(c2nccc(Nc3cc4c(C(C)C)cnc(N5C[C@H](OCCO)[C@H]5C)c4cn3)n2)C[C@@H]1F` [Example 140, 2-(((2R,3S)-1-(6-((2-((3S,4R)-3-fluoro-4-(methoxy-d3)piperidin-1-yl)pyrimidin-4-yl)amino)-4-isopropyl-2,7-naphthyridin-1-yl)-2-methylazetidin-3-yl)oxy)ethan-1-ol]: the IC50 is < 15 nM at EGFR (L858R T790M C797S) and < 10 nM in assay [1].
`CC(C)c1cnc(N2CC[C@H]2C)c2cnc(Nc3ccnc(N4CC[C@H](OCCO)[C@H](F)C4)n3)cc12` [Example 141, 2-(((3R,4S)-3-fluoro-1-(4-((5-isopropyl-8-((R)-2-methylazetidin-1-yl)-2,7-naphthyridin-3-yl)amino)pyrimidin-2-yl)piperidin-4-yl)oxy)ethan-1-ol]: the IC50 at EGFR (L858R T790M C797S) was < 15 nM; in assay [1], < 10 nM.
The like results for `CC(C)c1cnc(N2CC[C@H]2C)c2cnc(Nc3ccnc(N4CC[C@@H](OCCO)[C@@H](F)C4)n3)cc12` [Example 142, 2-(((3S,4R)-3-fluoro-1-(4-((5-isopropyl-8-((R)-2-methylazetidin-1-yl)-2,7-naphthyridin-3-yl)amino)pyrimidin-2-yl)piperidin-4-yl)oxy)ethan-1-ol] were, in that order, < 15 nM and < 10 nM.
The like results for `CC(C)c1cnc(N2C[C@H](O)[C@H]2C)c2cnc(Nc3ccnc(N4CC[C@H](O)[C@H](F)C4)n3)cc12` [Example 143, (3R,4S)-3-fluoro-1-(4-((8-((2R,3S)-3-hydroxy-2-methylazetidin-1-yl)-5-isopropyl-2,7-naphthyridin-3-yl)amino)pyrimidin-2-yl)piperidin-4-ol] were, in that order, < 15 nM and 10 to 20 nM.
Take `CC(C)c1cnc(N2C[C@H](n3ccnn3)[C@H]2C)c2cnc(Nc3ccnc(N4CC[C@@](C)(O)[C@@H](F)C4)n3)cc12` [Example 144, (3S,4R)-3-fluoro-1-(4-((5-isopropyl-8-((2R,3S)-2-methyl-3-(1H-1,2,3-triazol-1-yl)azetidin-1-yl)-2,7-naphthyridin-3-yl)amino)pyrimidin-2-yl)-4-methylpiperidin-4-ol]: the IC50 lay within 15 to 20 nM at EGFR (L858R T790M C797S) and 30 to 50 nM in assay [1].
The like results for `CO[C@@H]1CCN(c2nccc(Nc3cc4c(C(C)C)cnc(N5CC(O)C5)c4cn3)n2)C[C@@H]1F` [Example 147, 1-(6-((2-((3S,4R)-3-fluoro-4-methoxypiperidin-1-yl)pyrimidin-4-yl)amino)-4-isopropyl-2,7-naphthyridin-1-yl)azetidin-3-ol] were, in that order, < 15 nM and 20 to 30 nM.
On the same counts, the results for `CO[C@@H]1CCN(c2nccc(Nc3cc4c(C(C)C)cnc(N5C[C@H](OCCO)[C@H]5C)c4cn3)n2)C[C@@H]1F` [Example 148, 2-(((2R,3S)-1-(6-((2-((3S,4R)-3-fluoro-4-methoxypiperidin-1-yl)pyrimidin-4-yl)amino)-4-isopropyl-2,7-naphthyridin-1-yl)-2-methylazetidin-3-yl)oxy)ethan-1-ol] are < 15 nM and < 10 nM.
On the same counts, the results for `CO[C@H]1CCN(c2nccc(Nc3cc4c(C(C)C)cnc(N5C[C@H](O)[C@H]5C)c4cn3)n2)C[C@H]1F` [Example 149, (2R,3S)-1-(6-((2-((3R,4S)-3-fluoro-4-methoxypiperidin-1-yl)pyrimidin-4-yl)amino)-4-isopropyl-2,7-naphthyridin-1-yl)-2-methylazetidin-3-ol] are < 15 nM and 10 to 20 nM.
Take `CO[C@@H]1CCN(c2nccc(Nc3cc4c(C(C)C)cnc(N5C[C@H](O)[C@H]5C)c4cn3)n2)C[C@@H]1F` [Example 150, (2R,3S)-1-(6-((2-((3S,4R)-3-fluoro-4-methoxypiperidin-1-yl)pyrimidin-4-yl)amino)-4-isopropyl-2,7-naphthyridin-1-yl)-2-methylazetidin-3-ol]: the results for the IC50 (on EGFR (L858R T790M C797S); in assay [1]) were < 15 nM and < 10 nM, respectively.
On the same counts, the results for `CC(C)c1cnc(N2CCCC2)c2cnc(Nc3ccnc(N4CC[C@@H](O)[C@@H](F)C4)n3)cc12` [Example 151, (3S,4R)-3-fluoro-1-(4-((5-isopropyl-8-(pyrrolidin-1-yl)-2,7-naphthyridin-3-yl)amino)pyrimidin-2-yl)piperidin-4-ol] are 20 to 30 nM and 30 to 50 nM.
The like results for `CC(C)c1cnc(N2CCC2)c2cnc(Nc3ccnc(N4CC[C@@H](O)[C@@H](F)C4)n3)cc12` [Example 152, (3S,4R)-1-(4-((8-(azetidin-1-yl)-5-isopropyl-2,7-naphthyridin-3-yl)amino)pyrimidin-2-yl)-3-fluoropiperidin-4-ol] were, in that order, 15 to 20 nM and 30 to 50 nM.
With `CC(C)Oc1cnc(N2CC[C@H]2C)c2cnc(Nc3ccnc(N4CC[C@@H](O)[C@@H](F)C4)n3)cc12` [Example 153, (3S,4R)-3-fluoro-1-(4-((5-isopropoxy-8-((R)-2-methylazetidin-1-yl)-2,7-naphthyridin-3-yl)amino)pyrimidin-2-yl)piperidin-4-ol], the IC50 was 30 to 100 nM on EGFR (L858R T790M C797S) and > 50 nM in assay [1].
On the same counts, the results for `CC(C)c1cnc(N2C[C@H](O)[C@H]2C)c2cnc(Nc3ccnc(N4CC[C@@H](O)[C@@H](F)C4)n3)cc12` [Example 154, (3S,4R)-3-fluoro-1-(4-((8-((2R,3S)-3-hydroxy-2-methylazetidin-1-yl)-5-isopropyl-2,7-naphthyridin-3-yl)amino)pyrimidin-2-yl)piperidin-4-ol] are < 15 nM and 10 to 20 nM.
As for `CO[C@@H]1CCN(c2nccc(Nc3cc4c(C(C)C)cnc(N5C[C@H](OCCN)[C@H]5C)c4cn3)n2)C[C@@H]1F` [Example 163, 8-((2R,3S)-3-(2-aminoethoxy)-2-methylazetidin-1-yl)-N-(2-((3S,4R)-3-fluoro-4-methoxypiperidin-1-yl)pyrimidin-4-yl)-5-isopropyl-2,7-naphthyridin-3-amine], the figures for the IC50 (on EGFR (L858R T790M C797S); in assay [1]) were < 15 nM and 20 to 30 nM, respectively.

For the origin of these results see US20240382483A1, “HETEROCYCLIC EGFR INHIBITORS FOR USE IN THE TREATMENT OF CANCER” (Blueprint Medicines Corporation, priority 2021, published 2024).
